Laboratory results as given in patent US12486302B2, “Somatostatin receptor antagonist compounds and methods of using the same” (CDRD VENTURES INC., priority 2016, dated 2025).
*1 amine or outer side, *2 acyl side, *3 side chain or, on linkers, in order; H or OH if unused. Where a SMILES comes first, the peptide text is derived from it. Bridges are numbered along the chain shown (N, C = ends). [ ]: non-standard residue; d: D form. X1 = O=C([C@@H](Cc1ccc(NS(=O)(=O)c2ccccc2)cc1)N[*:1])[*:2]; dPhe(4-NH2) = Nc1ccc(C[C@@H](N)C(=O)O)cc1; Phe(4-Cl) = N[C@@H](Cc1ccc(Cl)cc1)C(=O)O; dCit = NC(=O)NCCC[C@@H](N)C(=O)O

Legend:
Type in all cases: cell-based
Conditions in all cases: agonist challenge at EC80
[1] = target: SSTR3 (Homo sapiens, UniProt P32745); experiment: PathHunter β-Arrestin assay, antagonist mode, SSTR3
Protocol: (§1) The PathHunter® β-Arrestin assay monitors the activation of a GPCR in a homogenous, non-imaging assay format using a technology developed by DiscoveRx called Enzyme Fragment Complementation (EFC) with β-galactosidase (β-Gal) as the functional reporter. […] EA is fused to β-Arrestin and […] is fused to the GPCR of interest. When the GPCR is activated and β-Arrestin is recruited to the receptor, ED and EA complementation occurs, restoring β-Gal activity which is measured using chemiluminescent PathHunter® Detection Reagents. For antagonist determination, cells were pre-incubated with the compounds followed by agonist challenge at the EC80 concentration. Data was normalized to the maximal and minimal response observed in the presence of EC80 ligand and vehicle. Compound activity was analyzed using CBIS data analysis suite ChemInnovation, CA). Percentage inhibition was calculated using the following formula: % Inhibition=100%×(1−(mean signal of test sample-mean signal of vehicle control)/(mean signal of EC80 control-mean signal of vehicle control)). Percentage inhibition was calculated at 10 concentrations in steps on a Log 3 scale ranging from […] to 5e-5 μM. The results were plotted for IC50 calculation.

[2] = target: SSTR1 (Homo sapiens, UniProt P30872); experiment: PathHunter β-Arrestin assay, antagonist mode, SSTR1
Protocol: as §1

[3] = target: somatostatin type 2 (SSTR2) receptors (Homo sapiens, UniProt P30874); experiment: PathHunter β-Arrestin assay, antagonist mode, SSTR2
In short: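 Cells co-expressing PK-tagged human receptor and EA-β-Arrestin were pre-incubated with compound, then challenged with agonist at EC80. β-Gal complementation read by chemiluminescence; % inhibition normalized to EC80 and vehicle controls at 10 concentrations (log 3 steps from 1 μM down to 5e-5 μM), fitted for IC50.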

[4] = target: SSTR5 (Homo sapiens, UniProt P35346); experiment: PathHunter β-Arrestin assay, antagonist mode, SSTR5
Protocol: as §1

[5] = target: SSTR4 (Homo sapiens, UniProt P31391); experiment: PathHunter β-Arrestin assay, antagonist mode, SSTR4
Protocol: as §1

Chain of somatostatin type 2 (SSTR2) receptors (P30874 whole entry): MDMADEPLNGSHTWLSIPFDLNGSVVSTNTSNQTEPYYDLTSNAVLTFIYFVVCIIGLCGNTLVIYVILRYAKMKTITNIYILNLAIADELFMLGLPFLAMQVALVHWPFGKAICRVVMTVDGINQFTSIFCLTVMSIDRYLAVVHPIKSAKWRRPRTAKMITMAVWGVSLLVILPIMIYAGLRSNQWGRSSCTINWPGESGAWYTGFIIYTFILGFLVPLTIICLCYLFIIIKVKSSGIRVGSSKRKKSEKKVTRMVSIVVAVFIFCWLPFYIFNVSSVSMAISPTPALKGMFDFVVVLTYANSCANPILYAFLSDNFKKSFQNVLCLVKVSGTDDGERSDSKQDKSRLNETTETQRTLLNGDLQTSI
Chain of SSTR3 (P32745 whole entry, the tested form may be a part): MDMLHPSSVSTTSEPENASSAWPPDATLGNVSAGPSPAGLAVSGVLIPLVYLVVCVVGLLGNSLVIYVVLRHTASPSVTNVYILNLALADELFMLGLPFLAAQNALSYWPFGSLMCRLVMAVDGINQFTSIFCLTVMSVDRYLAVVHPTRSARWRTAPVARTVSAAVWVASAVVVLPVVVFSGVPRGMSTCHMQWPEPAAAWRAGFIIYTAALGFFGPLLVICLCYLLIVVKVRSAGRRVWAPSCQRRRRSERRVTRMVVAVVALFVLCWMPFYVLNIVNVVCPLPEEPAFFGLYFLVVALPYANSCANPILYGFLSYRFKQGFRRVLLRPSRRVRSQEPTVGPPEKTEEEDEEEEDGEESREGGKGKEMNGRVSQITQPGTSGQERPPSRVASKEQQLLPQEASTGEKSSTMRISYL
Chain of SSTR5 (P35346 whole entry): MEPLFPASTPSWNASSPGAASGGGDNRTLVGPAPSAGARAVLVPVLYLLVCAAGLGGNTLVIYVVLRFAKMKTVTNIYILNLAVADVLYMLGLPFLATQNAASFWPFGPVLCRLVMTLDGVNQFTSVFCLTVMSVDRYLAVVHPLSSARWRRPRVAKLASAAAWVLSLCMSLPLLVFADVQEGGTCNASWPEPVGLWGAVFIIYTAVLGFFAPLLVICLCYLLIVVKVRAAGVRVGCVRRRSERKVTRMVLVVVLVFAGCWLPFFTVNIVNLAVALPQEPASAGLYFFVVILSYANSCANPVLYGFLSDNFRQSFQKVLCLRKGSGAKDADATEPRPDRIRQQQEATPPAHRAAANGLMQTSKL
Chain of SSTR1 (P30872 whole entry): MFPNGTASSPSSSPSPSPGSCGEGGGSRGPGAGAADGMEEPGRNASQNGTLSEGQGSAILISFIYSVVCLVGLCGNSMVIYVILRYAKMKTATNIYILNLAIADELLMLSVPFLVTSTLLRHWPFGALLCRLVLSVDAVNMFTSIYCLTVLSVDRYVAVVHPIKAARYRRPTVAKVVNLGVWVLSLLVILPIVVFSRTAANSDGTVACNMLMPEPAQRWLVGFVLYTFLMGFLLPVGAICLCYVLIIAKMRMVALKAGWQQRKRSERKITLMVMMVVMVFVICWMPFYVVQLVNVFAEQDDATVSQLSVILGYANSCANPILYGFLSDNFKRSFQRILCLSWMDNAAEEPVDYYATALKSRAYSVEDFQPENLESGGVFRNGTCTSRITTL
Chain of SSTR4 (P31391 whole entry): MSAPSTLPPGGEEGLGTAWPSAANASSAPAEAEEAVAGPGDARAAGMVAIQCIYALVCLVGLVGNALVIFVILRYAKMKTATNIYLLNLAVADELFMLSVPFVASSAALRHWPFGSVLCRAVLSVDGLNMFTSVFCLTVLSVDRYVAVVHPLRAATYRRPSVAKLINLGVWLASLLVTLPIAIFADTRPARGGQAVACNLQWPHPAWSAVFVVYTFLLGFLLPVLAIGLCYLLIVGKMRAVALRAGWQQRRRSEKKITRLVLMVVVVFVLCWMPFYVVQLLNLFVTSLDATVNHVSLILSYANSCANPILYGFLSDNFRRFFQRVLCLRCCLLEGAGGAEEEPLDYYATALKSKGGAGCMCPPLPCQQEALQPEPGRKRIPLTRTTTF

SMILES	IC50 [1] [µM]	IC50 [2] [µM]	IC50 [3] [µM]	IC50 [4] [µM]	IC50 [5] [µM]
C[C@@H](O)[C@@H]1NC(=O)[C@H](CCCCN)NC(=O)[C@@H](Cc2ccc(NC(=O)[C@@H](N)CCC(=O)O)cc2)NC(=O)[C@H](Cc2ccc(O)cc2)NC(=O)[C@H](NC(=O)[C@@H](N)Cc2ccc(Cl)cc2)CSSC[C@@H](C(=O)N[C@H](Cc2ccc(O)cc2)C(N)=O)NC1=O [Compound 20, H-Cpa-cyclo[DCys- Tyr-D-4-(Glu)Aph- Lys-Thr-Cys]- DTyr-NH2] (H-[Phe(4-Cl)][dC]Y[dPhe(4-NH2)](Glu)KTC[dY]-NH2; disulfide 2-7)	> 1		0.924		
C[C@@H](O)[C@@H]1NC(=O)[C@H](CCCCN)NC(=O)[C@@H](Cc2ccc(NS(=O)(=O)c3ccccc3)cc2)NC(=O)[C@H](Cc2ccc(O)cc2)NC(=O)[C@H](NC(=O)[C@@H](N)Cc2ccc(Cl)cc2)CSSC[C@@H](C(=O)N[C@H](Cc2ccc(O)cc2)C(N)=O)NC1=O [Compound 14, H-Cpa-cyclo[DCys- Tyr-D-4- (benzenesulfonyl) Aph-Lys-Thr- Cys]-DTyr-NH2] (H-[Phe(4-Cl)][dC]Y[X1]KTC[dY]-NH2; disulfide 2-7)	> 1	> 1	0.021	> 1	> 1
C[C@@H](O)[C@@H]1NC(=O)[C@H](CCCCN)NC(=O)[C@@H](Cc2ccc(NC(=O)[C@@H](N)CC(=O)O)cc2)NC(=O)[C@H](Cc2ccc(O)cc2)NC(=O)[C@H](NC(=O)[C@@H](N)Cc2ccc(Cl)cc2)CSSC[C@@H](C(=O)N[C@H](Cc2ccc(O)cc2)C(N)=O)NC1=O [Compound 18, H-Cpa-cyclo[DCys- Tyr-D-4-(Asp) Aph-Lys-Thr- Cys]-DTyr-NH2] (H-[Phe(4-Cl)][dC]Y[dPhe(4-NH2)](Asp)KTC[dY]-NH2; disulfide 2-7)	> 1		> 1		

Further lines, results first:

IC50 [1] [µM]	IC50 [2] [µM]	IC50 [3] [µM]	IC50 [4] [µM]	IC50 [5] [µM]	SMILES
> 1	> 1	0.034	> 1	> 1	C[C@@H](O)[C@@H]1NC(=O)[C@H](CCCCN)NC(=O)[C@@H](CCCNC(N)=O)NC(=O)[C@H](Cc2ccc(O)cc2)NC(=O)[C@H](NC(=O)[C@@H](N)Cc2ccc(Cl)cc2)CSSC[C@@H](C(=O)N[C@H](Cc2ccc(O)cc2)C(N)=O)NC1=O [Compound 1, H-Cpa-cyclo[D-Cys-Tyr-D-Cit-Lys-Thr-Cys]-D-Tyr-NH2] (H-[Phe(4-Cl)][dC]Y[dCit]KTC[dY]-NH2; disulfide 2-7)
> 1		> 1			C[C@@H](O)[C@@H]1NC(=O)[C@H](CCCCN)NC(=O)[C@@H](Cc2ccc(NC(=O)[C@@H](N)CCC(N)=O)cc2)NC(=O)[C@H](Cc2ccc(O)cc2)NC(=O)[C@H](NC(=O)[C@@H](N)Cc2ccc(Cl)cc2)CSSC[C@@H](C(=O)N[C@H](Cc2ccc(O)cc2)C(N)=O)NC1=O [Compound 21, H-Cpa-cyclo[DCys- Tyr-D-4-(Gln)Aph- Lys-Thr-Cys]- DTyr-NH2] (H-[Phe(4-Cl)][dC]Y[dPhe(4-NH2)](Gln)KTC[dY]-NH2; disulfide 2-7)
